Measurements reported in ChEMBL document CHEMBL5375971, “Structure-Interaction Relationship of Polymyxins with Lung Surfactant” (2023).
Activity calls are given as the source filed them. No cut-off for these calls is given here. Where a SMILES comes first, the peptide text is derived from it. Bridges are numbered along the chain shown (N, C = ends). [ ]: non-standard residue; d: D form. The star is where a group is joined. X1 = CC[C@H](C)CCCCC(=O)*; dDab = NCC[C@@H](N)C(=O)O; Dab = NCC[C@H](N)C(=O)O

Experiments:
Conditions in all cases: dose 0.25-4 mg/L
Pseudomonas aeruginosa [1] = assay: Antibacterial activity against Pseudomonas aeruginosa ATCC 27853 assessed as decrease in bacterial growth at 0.25 to 4 mg/L in presence of lung surfactant by broth microdilution assay; format: functional, organism-based
Klebsiella pneumoniae [2] = assay: Antibacterial activity against Klebsiella pneumoniae FADDI-KP065 assessed as decrease in bacterial growth at 0.25 to 4 mg/L in presence of lung surfactant by broth microdilution assay; format: functional, organism-based
Acinetobacter baumannii [3] = assay: Antibacterial activity against Acinetobacter baumannii FADDI-AB030 assessed as decrease in bacterial growth at 0.25 to 4 mg/L in presence of lung surfactant by broth microdilution assay; format: functional, organism-based
Pseudomonas aeruginosa [4] = assay: Antibacterial activity against Pseudomonas aeruginosa ATCC 27853 assessed as fold increase in MIC at 0.25 to 4 mg/L in presence of lung surfactant by broth microdilution assay; format: functional
Klebsiella pneumoniae [5] = assay: Antibacterial activity against Klebsiella pneumoniae FADDI-KP065 assessed as fold increase in MIC at 0.25 to 4 mg/L in presence of lung surfactant by broth microdilution assay; format: functional
Acinetobacter baumannii [6] = assay: Antibacterial activity against Acinetobacter baumannii FADDI-AB030 assessed as fold increase in MIC at 0.25 to 4 mg/L in presence of lung surfactant by broth microdilution assay; format: functional

Molecule | Activity (Pseudomonas aeruginosa [1]) | Activity (Klebsiella pneumoniae [2]) | Activity (Acinetobacter baumannii [3]) | fold change (FC) (Pseudomonas aeruginosa [4]) | fold change (FC) (Klebsiella pneumoniae [5]) | fold change (FC) (Acinetobacter baumannii [6])
CCCCCCCCCC(=O)N[C@@H](CCN)C(=O)N[C@H](C(=O)N[C@@H](CCN)C(=O)N[C@H]1CCNC(=O)[C@H]([C@@H](C)O)NC(=O)[C@H](CCN)NC(=O)[C@H](CCN)NC(=O)[C@H]([C@H](C)O)NC(=O)[C@@H](CC(C)C)NC(=O)[C@H](CCN)NC1=O)[C@@H](C)O | Active | Active | Active | – | – | –
CC[C@H](C)CCCCC(=O)N[C@@H](CCN)C(=O)N[C@H](C(=O)N[C@@H](CCN)C(=O)N[C@H]1CCNC(=O)[C@H]([C@@H](C)O)NC(=O)[C@H](CCN)NC(=O)[C@H](CCN)NC(=O)[C@H](CC(C)C)NC(=O)[C@@H](Cc2ccccc2)NC(=O)[C@H](CCN)NC1=O)[C@@H](C)O (X1-[Dab]T[Dab][Dab][Dab][dF]L[Dab][Dab]T; lactam 4-C) | Active | Active | Active | – | – | –
CCCCCCCC[C@@H]1NC(=O)[C@@H](Cc2ccccc2)NC(=O)[C@@H](CCN)NC(=O)[C@@H](NC(=O)[C@H](CCN)NC(=O)[C@@H](NC(=O)[C@H](CCN)NC(=O)CCCCCCC)[C@@H](C)O)CCNC(=O)[C@H]([C@@H](C)O)NC(=O)[C@H](CCN)NC(=O)[C@H](CCN)NC1=O | – | – | – | 8 | 2 | 2
CC[C@H](C)CCCCC(=O)N[C@@H](CCN)C(=O)N[C@H](C(=O)N[C@H](CCN)C(=O)N[C@H]1CCNC(=O)[C@H]([C@@H](C)O)NC(=O)[C@H](CCN)NC(=O)[C@H](CCN)NC(=O)[C@H]([C@@H](C)O)NC(=O)[C@@H](CC(C)C)NC(=O)[C@H](CCN)NC1=O)[C@@H](C)O (X1-[Dab]T[dDab][Dab][Dab][dL]T[Dab][Dab]T; lactam 4-C) | Active | Active | Active | 2 | 8 | 4
CC[C@H](C)CCCCC(=O)N[C@@H](CCN)C(=O)N[C@H](C(=O)N[C@@H](CCN)C(=O)N[C@H]1CCNC(=O)[C@H]([C@@H](C)O)NC(=O)[C@H](CCN)NC(=O)[C@H](CCN)NC(=O)[C@H]([C@@H](C)O)NC(=O)[C@@H](CC(C)C)NC(=O)[C@H](CCN)NC1=O)[C@@H](C)O (X1-[Dab]T[Dab][Dab][Dab][dL]T[Dab][Dab]T; lactam 4-C) | Active | Active | Active | 2 | 4 | 4
CCCCCC(=O)N[C@@H](CCN)C(=O)N[C@@H](C(=O)N[C@@H](CCN)C(=O)N[C@H]1CCNC(=O)[C@@H]([C@H](C)O)NC(=O)[C@H](CCN)NC(=O)[C@H](CCN)NC(=O)[C@H]([C@H](C)O)NC(=O)[C@@H](CC(C)C)NC(=O)[C@H](CCN)NC1=O)[C@H](C)O | inactive | inactive | inactive | – | – | –
COLISTIN | Active | Active | Active | 4 | 2 | 4
